Where two headings read alike, the source gives them in different places.

The text below walks through data of patent US20240400579A1, “SPIROCYCLIC MODULATORS OF CHOLESTEROL BIOSYNTHESIS AND THEIR USE FOR PROMOTING REMYELINATION” (GENENTECH, INC., priority 2021, published 2024).

Assay [1] has as its system EpiSC-derived OPCs. As to the kind of experiment: In vitro phenotypic screening of OPCs, MBP high-content imaging. It counts as cell-based, mouse. To be noted: percentage of MBP+ oligodendrocytes, 3 days, 0.5 nM to 1000 nM, read-out: mOPC EC50. On the procedure: (§1) To assess effects of treatments on OPCs, all treatments were assayed in two or more independent platings of epiblast stem cell-derived OPCs (EpiSC). EpiSC-derived OPCs were obtained using in vitro differentiation protocols and culture conditions described previously (Najm et al, 2011, Nature Methods). OPCs were expanded and frozen down in aliquots. OPCs were thawed into growth conditions for at least one passage before use in further assays.
EpiSC-derived OPCs were grown and expanded in poly-L-ornithine (PO) and laminin-coated flasks in N2B27 media (DMEM/F12 (Gibco), N2-MAX (R&D Systems), B-27 (ThermoFisher), and GlutaMax (Gibco)) supplemented with FGF2 ([…], R&D systems, 233-FB-025) and PDGF-AA ([…], R&D systems, 233-AA-050) before harvesting for experiments. The cells were seeded onto poly-L-ornithine or poly-D-lysine coated CellCarrier Ultra plates (PerkinElmer) coated with laminin (Sigma, L2020) at a density of 150,000/cm^2 in N2B27 media without growth factors. For dose-response testing, a 1000× compound stock in dimethyl sulphoxide (DMSO) was added to assay plates, resulting in 8-point dose curves with final concentrations between 1000 nM and 0.5 nM. Positive controls and DMSO vehicle controls were included in each assay plate. Cells were incubated under standard conditions (37° C., 5% CO2) for 3 days and fixed with 4% paraformaldehyde (PFA) in phosphate buffered saline (PBS) for 20 min. Fixed plates were washed with PBS, permeabilized with 0.1% Triton X-100, and blocked with 10% donkey serum (v/v) in PBS for 40 min. Then, cells were labelled with MBP antibodies (Abcam, ab7349; 1:200) for 2 h at room temperature, washed with PBS, and stained with Alexa Fluor conjugated secondary antibodies (1:500) for 45 min. Nuclei were visualized by DAPI staining (Sigma; 1 μg/ml), followed by further PBS washes.
Cells and cell culture plates were imaged on the Operetta High Content Imaging and Analysis system (PerkinElmer). Analysis (PerkinElmer Harmony and Columbus software) began by identifying intact nuclei stained by DAPI. The peri-nuclear region of each cell was then cross-referenced with the mature myelin protein (MBP) stain to identify oligodendrocyte nuclei, and from this the percentage of oligodendrocytes was calculated. EC50 values were calculated using The Levenberg-Marquardt algorithm to fit a Hill equation to dose-response data (0.5 nM to 1000 nM).

The target in assay [2] is human emopamil binding protein and human 7-dehydrocholesterol reductase co-expressing cell membrane (Homo sapiens (Human), UniProt Q15125). As to the kind of experiment: hEBP-DHCR7 radioligand filtration binding assay with [3H]-Compound 118A*. To be noted: radioligand [3H]-Compound 118A*; HEK293 membrane co-expressing hEBP and DHCR7. On the procedure: Membrane Preparation: human emopamil binding protein and human 7-dehydrocholesterol reductase co-expressing cells were generated by transient transfecting host human embryonic kidney (HEK) 293 cells with 2 DNA constructs containing each protein's coding sequence. Cells were suspension cultured at 37° C. with 5% CO2 in […] 293 Expression Medium (Thermofisher). Whole cell membrane was prepared by harvesting the cell pellet, adding cold membrane buffer (50 mM Tris, pH7.5, 1× Roche COMPLETE EDTA-free protease inhibitor cocktail) 10 times volume of the cell pellets weight, lysing cell pellet on ice by using Dounce homogenizer, spinning at 200 g 4° C. for 15 min, collecting supernatant and spinning again at 25000 g 4° C. for 50 min, transferring pellet to Dounce homogenizer, re-suspending pellet by homogenizing in membrane buffer on ice to reach ˜25 mg/mL, then keeping whole cell membrane aliquots at −80° C.
human emopamil binding protein and human 7-dehydrocholesterol reductase co-expressing cell membrane, sequence (Q15125 whole entry): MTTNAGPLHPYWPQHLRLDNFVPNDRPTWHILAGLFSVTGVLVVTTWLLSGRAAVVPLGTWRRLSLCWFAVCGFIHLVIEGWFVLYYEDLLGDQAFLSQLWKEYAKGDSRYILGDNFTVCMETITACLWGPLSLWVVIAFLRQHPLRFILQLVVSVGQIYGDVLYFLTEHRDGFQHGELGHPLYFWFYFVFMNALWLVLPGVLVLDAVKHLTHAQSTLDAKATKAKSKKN
Compounds were prepared in a 96-well U bottom plate using an Echo550 machine and 10 mM compound DMSO stock solution, followed by an 8-dose 5-fold serial dilutions protocol with final testing compound concentration ranging from 0.06 to 5000 nM, with DMSO back fill to 100 nL/well and n=2. […] The UniFilter-96 GF/B plates were pre-treated by adding 50 μl/well of 0.3% (v/v) PEI to UniFilter-96 GF/B plates. The plates were sealed and incubated at 4° C. for 3 hrs. Then, the plates were washed with ice-cold assay buffer 3 times. The radioligand binding assay was prepared by adding assay buffer diluted hEBP-DHCR7 membrane at 66.7 μg/ml x 150 μl/well into the 96-well compound plate to reach 10 μg membrane per well. Then, the assay buffer diluted [3H]-Compound 118A* was added at 25 nM×50 μl/well. Following this, the plate was centrifuged at 1000 rpm for 30 secs. The plate was then sealed and agitated at 600 rpm at 22° C. for 5 min, and then incubated at 22° C. for 3 hrs. The incubation was stopped by transferring the binding solution to the pre-treated UniFilter-96 GF/B plate, vacuum filtrated, and then washed four times with ice-cold assay buffer. Following this, the plates were dried at 37° C. for 45 min. The plates were then sealed at the bottom. 40 μl/well of scintillation cocktail was added to the plates. A MicroBeta2 microplate counter was then used to read the plate and analyze the data. For reference and test compounds, the results are expressed as % Inhibition, using the normalization equation: N=100-100×(U−C2)/(C1−C2), where U is the unknown value, C1 is the average of high controls, and C2 is the average value of low controls. The IC50 was determined by fitting percentage of inhibition as a function of compound concentrations with Hill equation using XLfit. Results are expressed as hEBP-DHCR7 Ki (uM) in Table 4. Ki was calculated as described above.

Assay [3] has as its system zymostenol accumulation in EpiSC-derived OPCs (EBP). Description: GC/MS-based sterol profiling, zymostenol accumulation. To be noted: 8 doses from 0.15 nM to 333 nM, read-out: mZymo GCMS EC50. It counts as cell-based, mouse. The protocol: as §1
Sterols were monitored using a modified Folch wash protocol (Hubler et al, 2018, Nature). EpiSC-derived OPCs were plated at 100,000 cells per well in PO— and laminin-coated 96-well plates in N2B27 media without growth factors. After 24 hours, cells were rinsed with saline and plates were frozen. Cholesterol-d7 standard was then added to each well before drying under nitrogen stream and derivatization with 55 μl of bis(trimethylsilyl) trifluoroacetamide. After derivatization, 2 μl were analyzed by gas chromatography/mass spectrometry using an Agilent 5973 Network Mass Selective Detector equipped with a 6890 gas chromatograph system and a HP-5MS capillary column (30 m x 0.25 mm×[…]). Samples were analyzed in full scan mode using electron impact ionization; ion fragment peaks were integrated to calculate sterol abundance, and quantitation was relative to cholesterol-d7. The following ion fragments were used to quantitate each metabolite: cholesterol-d7 (465), FF-Mas (482), cholesterol (368), zymostenol (458), zymosterol (456), Desmosterol (456, 343), 7-dehydrocholesterol (456, 325), lanosterol (393), lathosterol (458), 14-dehydrozymostenol (456, 351). […] All standards were obtained from Avanti Polar Lipids unless otherwise indicated. Calibration curves were generated by injecting varying concentrations of sterol standards and maintaining a fixed amount of cholesterol-D7. For normalized zymostenol accumulation results, the total amount of zymostenol measured after drug treatment was divided by the total amount of zymostenol accumulated after 24 hr treatment with 100 nM positive control reference.

For `O=S1(=O)CC2(CCN(CCOc3ccc(C(F)(F)F)c(F)c3)CC2)C1` [Compound 228, 7-(2-(3-Fluoro-4-(trifluoromethyl)phenoxy)ethyl)-2-thia-7-azaspiro[3.5]nonane 2,2-dioxide], the EC50 in assay [1] (Mus musculus, 72 h) came to 2.8 nM; in assay [3] (Mus musculus, 24 h) it was 0.94 nM. This compound also gave a Ki in assay [2] of 7.95 nM.
For the compound `C[C@@H](Cc1ccc(C(F)(F)F)nc1)CN1CC2(CCS(=O)(=O)CC2)C1` (single isomer, unassigned) [234B*], the EC50 came to 210 nM in assay [1] (Mus musculus, 72 h) and 35 nM in assay [3] (Mus musculus, 24 h). In assay [2], this compound had a Ki of 193 nM.
As to `O=S1(=O)CC2(CCN(CCOc3ccc(OC(F)(F)F)cc3)CC2)C1` [Compound 218, 7-(2-(4-(Trifluoromethoxy)phenoxy)ethyl)-2-thia-7-azaspiro[3.5]nonane 2,2-dioxide], the EC50 in assay [1] (Mus musculus, 72 h) came to 2.5 nM; in assay [3] (Mus musculus, 24 h) it was 0.93 nM. Also, in assay [2], the Ki is 6.54 nM.
`O=S1(=O)CC2(CCN(CC[C@@H](F)c3ccc(C(F)(F)F)nc3)CC2)C1` (single isomer, unassigned) [237B*]: the EC50 is 69.1 nM in assay [1] (Mus musculus, 72 h) and 17 nM in assay [3] (Mus musculus, 24 h). The compound further yielded a Ki in assay [2] of 117 nM.
On to `CCC(C)(C)c1ccc(CCC(C)N2CCC3(C2)CS(=O)(=O)C3)cc1` (racemic) [Compound 105, 6-(4-(4-(tert-Pentyl)phenyl)butan-2-yl)-2-thia-6-azaspiro[3.4]octane 2,2-dioxide], for which the concentration giving a half-maximal response (EC50) in assay [1] (Mus musculus, 72 h) turned out to be 260 nM; in assay [3] (Mus musculus, 24 h) it was 66 nM. In assay [2], this compound had an inhibition constant Ki of 12.9 nM.
Regarding `C[C@H](Cc1ccc(C(F)(F)F)cc1)CN1CCC2(CC1)CS(=O)(=O)C2` (single isomer, unassigned) [216B*], the EC50 in assay [1] (Mus musculus, 72 h) amounted to 3.3 nM; in assay [3] (Mus musculus, 24 h), 0.99 nM. For the same compound, in assay [2], the Ki came to 15.6 nM.
With `C[C@H](Cc1ccc([C@H]2CC[C@](C)(O)CC2)c(Cl)c1)CN1CCC2(C1)CS(=O)(=O)C2` (mixture of isomers) [Compound 123A, 6-((R)-3-(3-Chloro-4-((1r,4R)-4-hydroxy-4-methylcyclohexyl)phenyl)-2-methylpropyl)-2-thia-6-azaspiro[3.4]octane 2,2-dioxide, 6-((S)-3-(3-chloro-4-((1r,4S)-4-hydroxy-4-methylcyclohexyl)phenyl)-2-methylpropyl)-2-thia-6-azaspiro[3.4]octane 2,2-dioxide], the EC50 in assay [1] was determined as 54 nM; in assay [3] (24 hours), 14 nM. The compound also showed an inhibition constant Ki in assay [2] of 11.9 nM.
As to `O=S1(=O)CCC2(CC1)CN(CCCc1ccc(C(F)(F)F)nc1)C2` [Compound 223, 2-(3-(6-(Trifluoromethyl)pyridin-3-yl)propyl)-7-thia-2-azaspiro[3.5]nonane 7,7-dioxide], the EC50 in assay [1] (Mus musculus, 72 h) came to 355 nM; in assay [3] (Mus musculus, 24 h) it was 120 nM. The compound further yielded a Ki in assay [2] of 555 nM.
Turning to `O=S1(=O)CC2(CCN(CCOc3cnc([C@H]4CC[C@H](C(F)(F)F)CC4)c(F)c3)CC2)C1` [Compound 249, 7-(2-((5-Fluoro-6-((trans)-4-(trifluoromethyl)cyclohexyl)pyridin-3-yl)oxy)ethyl)-2-thia-7-azaspiro[3.5]nonane 2,2-dioxide], the EC50 stood at 74.1 nM in assay [1] (Mus musculus, 72 h) and 25.6 nM in assay [3] (Mus musculus, 24 h). In assay [2], affinity was put at a Ki of 31.6 nM.
With `C[C@H](Cc1ccc(C2CCC2)cc1)CN1CCC2(C1)CS(=O)(=O)C2` (single isomer, unassigned) [109B*], the EC50 in assay [1] (Mus musculus, 72 h) stood at 0.55 nM; in assay [3] (Mus musculus, 24 h), 0.4 nM. Moreover, in assay [2], affinity was put at a Ki of 6.54 nM.
Consider `CC(C)(CN1CCC2(C1)CS(=O)(=O)C2)Oc1ccc(C(F)(F)F)cc1` [Compound 120, 6-(2-Methyl-2-(4-(trifluoromethyl)phenoxy)propyl)-2-thia-6-azaspiro[3.4]octane 2,2-dioxide], for which the EC50 in assay [1] (Mus musculus, 72 h) was 6.4 nM; in assay [3] (Mus musculus, 24 h), 4 nM. Further, in assay [2], the inhibition constant (Ki) amounted to 17.7 nM.
Regarding `CC(C)(Cc1ccc(C(F)(F)F)nc1)CN1CCC2(CC1)CS(=O)(=O)C2` [Example 152, 7-(2,2-Dimethyl-3-(6-(trifluoromethyl)pyridin-3-yl)propyl)-2-thia-7-azaspiro[3.5]nonane-2,2-dioxide], the EC50 in assay [1] (Mus musculus, 72 h) was found to be 11 nM; in assay [3] (Mus musculus, 24 h), 3.3 nM. For the same compound, in assay [2], the affinity corresponds to a Ki of 16 nM.
Consider `CC(Cc1ccc(F)c(F)c1)CN1CCC2(CC1)CS(=O)(=O)C2` (single isomer, unassigned) [212A*, 7-(3-(3,4-Difluorophenyl)-2-methylpropyl)-2-thia-7-azaspiro[3.5]nonane 2,2-dioxide], for which the EC50 in assay [1] (Mus musculus, 72 h) turned out to be 4.7 nM; in assay [3] (Mus musculus, 24 h), 2.36 nM. In addition, in assay [2], the Ki worked out at 15.6 nM.
On to `CC(C)(Cc1ccc(C(F)(F)F)nc1)CN1CC[C@]2(CCS(=O)(=O)C2)C1` (single isomer, unassigned) [Compound 148A], for which the EC50 in assay [1] (Mus musculus, 72 h) is 31 nM; in assay [3] (Mus musculus, 24 h), 4.9 nM. Also, the Ki in assay [2] turned out to be 23.6 nM.
For the compound `O=S1(=O)CC2(CCN(CCCc3ccc(OC(F)(F)F)cc3)CC2)C1` [Compound 213, 7-(3-(4-(Trifluoromethoxy)phenyl)propyl)-2-thia-7-azaspiro[3.5]nonane 2,2-dioxide], the half-maximal effective concentration (EC50) in assay [1] (Mus musculus, 72 h) was determined as 4.7 nM; in assay [3] (Mus musculus, 24 h), 5 nM. The same compound displayed a Ki in assay [2] of 12 nM.

As a reminder, the EC50 is the concentration that produces a half-maximal response. One may read the Ki as the equilibrium dissociation constant of an inhibitor or competing ligand from its target. Read a low Ki as higher affinity.
